{"source": "paper PMC11025159", "about": "(Journal of Translational Medicine, 2024)", "key": {"HCT-116": {"tested_on": "HCT-116", "test": "MTT cell viability assay HCT-116", "format": "cell-based, human", "settings": "Homo sapiens, HCT-116, 48 h", "method": "Cell viability was evaluated using an MTT colorimetric assay. Cells were seeded (10^5 cells/mL) in 96-well plates and allowed to grow overnight at 37 ℃ with 5% CO2 in a cell-culture incubator. On the following day, the cells were treated with small molecules at different concentrations (0.2–10 micro-molar) or vehicle (DMSO). Cells were then further incubated for 48 h."}, "[1]": {"tested_on": "phosphorylation of JAK1, JAK3 and STAT3", "test": "Western blotting of JAK/STAT phosphorylation in A549 cells", "format": "cell-based, human", "method": "For western blotting, A549 cells were seeded at a density of 0.2 × 10^6 cells/well in 6-well plates. […] Whole-cell lysates were prepared in 1× RIPA buffer (Sigma) with added sodium orthovanadate (1 mM), protease cocktail (Roche), NaF (1 mM), PMSF (1 mM) and EDTA (0.5 M). Protein estimation was done using Bradford reagent (Bio-Rad). […] Whole-cell lysates corresponding to 70-100 µg of protein were loaded. The samples were analysed by SDS-PAGE with a 10% separating gel. […] The membrane was probed with specific antibodies for pJAK-1 (1:1000), p-STAT-3 (CST) (1:1000), total JAK-1 (1:1000), pJAK-3 Z(1:1000), T-JAK-3 (1:1000), total STAT-3(1:1000), GAPDH (1:500), and visualized using ECL (Millipore). GAPDH was used as a loading control. […] Following this starvation period, the A549 cells were pre-treated with varying concentrations of MJ04 for a duration of 4 h. Following the pre-treatment, the cells were stimulated with 10 ng/mL of IL-6 for 30 min [20–22]."}, "PI-3-K γ": {"target": "T1, PI-3-K γ (Homo sapiens, UniProt P48736)", "T1 construct": "purchased Promega Corporation V1690", "T1 sequence (P48736 whole entry)": "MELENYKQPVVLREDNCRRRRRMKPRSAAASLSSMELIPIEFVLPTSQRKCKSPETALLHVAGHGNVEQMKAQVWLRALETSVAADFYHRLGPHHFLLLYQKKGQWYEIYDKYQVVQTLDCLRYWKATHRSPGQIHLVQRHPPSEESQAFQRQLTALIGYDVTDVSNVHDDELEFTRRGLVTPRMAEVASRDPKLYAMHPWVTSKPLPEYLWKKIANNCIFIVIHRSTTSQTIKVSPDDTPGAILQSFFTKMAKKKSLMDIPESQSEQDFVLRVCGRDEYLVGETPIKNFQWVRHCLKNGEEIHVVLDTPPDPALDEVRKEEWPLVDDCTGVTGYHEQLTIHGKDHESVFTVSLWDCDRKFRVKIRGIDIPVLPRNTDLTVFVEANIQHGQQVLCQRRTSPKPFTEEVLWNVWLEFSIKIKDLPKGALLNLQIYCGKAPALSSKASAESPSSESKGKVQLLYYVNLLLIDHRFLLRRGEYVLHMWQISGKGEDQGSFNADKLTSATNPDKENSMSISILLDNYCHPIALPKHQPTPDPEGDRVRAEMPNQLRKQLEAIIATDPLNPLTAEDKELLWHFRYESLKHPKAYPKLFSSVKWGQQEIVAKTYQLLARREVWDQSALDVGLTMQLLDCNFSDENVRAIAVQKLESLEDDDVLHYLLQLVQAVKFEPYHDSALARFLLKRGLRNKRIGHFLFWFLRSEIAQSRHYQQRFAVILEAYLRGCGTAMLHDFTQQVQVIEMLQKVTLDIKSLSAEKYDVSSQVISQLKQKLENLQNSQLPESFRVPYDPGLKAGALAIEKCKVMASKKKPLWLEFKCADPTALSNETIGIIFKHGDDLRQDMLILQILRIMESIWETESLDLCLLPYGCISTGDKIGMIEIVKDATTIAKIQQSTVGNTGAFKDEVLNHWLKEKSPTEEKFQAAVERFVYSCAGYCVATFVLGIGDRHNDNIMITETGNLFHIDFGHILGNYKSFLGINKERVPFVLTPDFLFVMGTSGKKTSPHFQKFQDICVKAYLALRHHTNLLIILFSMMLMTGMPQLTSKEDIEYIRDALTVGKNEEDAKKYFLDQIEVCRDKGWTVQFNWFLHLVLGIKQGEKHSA", "test": "Cell-free kinase assay PI-3-K γ", "format": "biochemical", "method": "(§1) The cell-free kinase assays of small molecules were determined by following the manufacturer-recommended protocols. Different concentrations in triplicate were used to determine the IC50 value of the hit molecules (active molecules). For data analysis, GraphPad Prism V9.5 Software and a sigmoidal dose–response (variable slope) equation were used. Each value represents an average of three replicates per concentration."}, "PI-3-K β": {"target": "T2, PI-3-K β (Homo sapiens, UniProt P42338)", "T2 construct": "purchased Promega Corporation V1690", "T2 sequence (P42338 whole entry)": "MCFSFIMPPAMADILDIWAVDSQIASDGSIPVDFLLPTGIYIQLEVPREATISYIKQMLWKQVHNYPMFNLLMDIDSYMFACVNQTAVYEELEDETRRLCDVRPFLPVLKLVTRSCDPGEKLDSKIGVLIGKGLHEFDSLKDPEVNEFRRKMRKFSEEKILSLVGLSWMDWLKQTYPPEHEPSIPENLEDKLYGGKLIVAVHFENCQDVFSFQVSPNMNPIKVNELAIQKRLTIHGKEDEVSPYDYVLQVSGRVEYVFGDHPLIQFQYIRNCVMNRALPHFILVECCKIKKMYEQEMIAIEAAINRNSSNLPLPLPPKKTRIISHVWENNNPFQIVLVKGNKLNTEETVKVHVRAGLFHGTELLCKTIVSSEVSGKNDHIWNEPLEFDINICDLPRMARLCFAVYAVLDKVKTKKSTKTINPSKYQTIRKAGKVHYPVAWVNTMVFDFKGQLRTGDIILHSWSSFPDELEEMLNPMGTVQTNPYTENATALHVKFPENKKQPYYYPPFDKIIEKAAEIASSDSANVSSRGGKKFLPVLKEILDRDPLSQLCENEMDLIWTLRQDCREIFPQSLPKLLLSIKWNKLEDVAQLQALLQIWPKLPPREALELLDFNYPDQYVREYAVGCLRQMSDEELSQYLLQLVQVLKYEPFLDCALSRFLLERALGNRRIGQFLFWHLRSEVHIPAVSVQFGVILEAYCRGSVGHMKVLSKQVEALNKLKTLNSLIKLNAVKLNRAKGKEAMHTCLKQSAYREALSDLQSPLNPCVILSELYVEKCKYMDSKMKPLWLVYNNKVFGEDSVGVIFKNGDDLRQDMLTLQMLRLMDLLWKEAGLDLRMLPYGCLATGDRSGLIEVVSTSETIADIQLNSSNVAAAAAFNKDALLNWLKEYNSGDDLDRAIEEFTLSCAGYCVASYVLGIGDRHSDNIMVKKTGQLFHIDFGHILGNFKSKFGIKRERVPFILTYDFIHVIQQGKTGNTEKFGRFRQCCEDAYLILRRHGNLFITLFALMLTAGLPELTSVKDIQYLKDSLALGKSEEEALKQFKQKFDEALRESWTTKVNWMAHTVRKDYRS", "T2 sequence (P27986 whole entry partner)": "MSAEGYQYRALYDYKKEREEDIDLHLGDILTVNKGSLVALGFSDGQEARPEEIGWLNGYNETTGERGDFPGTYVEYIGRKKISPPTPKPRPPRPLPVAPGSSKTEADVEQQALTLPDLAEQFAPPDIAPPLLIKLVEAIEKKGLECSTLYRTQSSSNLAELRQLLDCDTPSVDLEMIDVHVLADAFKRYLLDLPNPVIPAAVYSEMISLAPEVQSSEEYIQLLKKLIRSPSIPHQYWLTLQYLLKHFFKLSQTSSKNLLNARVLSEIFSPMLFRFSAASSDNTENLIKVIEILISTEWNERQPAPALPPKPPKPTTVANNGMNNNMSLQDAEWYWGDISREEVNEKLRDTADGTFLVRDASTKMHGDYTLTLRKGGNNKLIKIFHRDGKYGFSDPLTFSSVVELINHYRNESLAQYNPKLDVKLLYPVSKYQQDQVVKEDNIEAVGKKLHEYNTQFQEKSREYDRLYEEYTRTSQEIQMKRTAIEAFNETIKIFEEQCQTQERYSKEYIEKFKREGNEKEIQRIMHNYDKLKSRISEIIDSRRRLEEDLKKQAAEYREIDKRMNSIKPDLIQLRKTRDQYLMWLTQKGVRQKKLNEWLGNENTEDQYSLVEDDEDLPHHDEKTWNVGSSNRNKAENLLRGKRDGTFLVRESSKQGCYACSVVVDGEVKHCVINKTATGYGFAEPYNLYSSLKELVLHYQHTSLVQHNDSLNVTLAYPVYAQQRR", "test": "Cell-free kinase assay PI-3-K β", "format": "biochemical", "settings": "Km ATP", "method": "as §1"}, "[2]": {"tested_on": "IFN-γ-producing CD4+ T-cells", "test": "T-cell differentiation of splenocytes, IFN-γ in CD4+ T-cells (Th1), flow cytometry", "format": "cell-based, C57BL/6 mice", "settings": "dose-dependent, 0.01-10 µM", "description": "Splenocytes were isolated from the spleen of C57BL/6 mice. The whole spleen was crushed in a complete RPMI medium and passed through the 40 µm cell filter to obtain a single-cell suspension. The cell suspension was centrifuged at 300×g for 5 min, and the pellet was resuspended into the 1× RBC lysis buffer (Life Technology, Thermofisher, USA) for 10 min at room temperature to lyse the red blood cells. The sample was further centrifuged at the same speed and duration, and the pellet was resuspended in complete RPMI medium. Now, splenocytes were seeded into the 96-well plates (U bottom) at 3 × 10^5 cells/well density. […] For Th1 and Tc1 differentiation, IL-12 (5 ng/ml) was added and allowed to grow for four days.\nPrior to harvesting, cells were further stimulated with PMA (50 ng/ml), ionomycin (1000 ng/ml), and glogi Stop (as per manufacturer recommendation) for 4 h. The plate was spun down at 2000 rpm for 10 min and washed once with FACS buffer (3% FBS, 1× PBS, and 200 mM EDTA). Cells were stained with anti-CD4-PerCP and anti-CD8-FITC antibodies (BD, Biosciences) in the dilution 1:400 by adding 100 µl/well and incubated at RT for 60 min. […] Cells were finally washed and resuspended into FACS buffer, and data was recorded into the BD accuri C6 flow cytometer, and data were analyzed by Flowjo."}, "[3]": {"test": "Stability of the formulation used for in vivo studies (HPLC)", "format": "physicochemical", "settings": "ethanol / ethanol:PEG-300, room temperature, 0-48 h", "method": "The stability study of the lead compound (MJ04) was performed using HPLC analysis wherein the samples were studied after different time intervals. The 0.6 mg of MJ04 was taken and dissolved in 1 mL of ethanol to achieve 0.6 mg/mL concentration. Out of this, 500 µL was further diluted to 0.3 mg/mL by adding 500 µL ethanol to it (Ethanol sample). To remaining 500 µL, we added 500 µL PEG-300 to achieve final concentration of 0.3 mg /mL (Ethanol:PEG sample). HPLC of these samples was performed at various time points (0 h, 12 h, 24 h and 48 h) upon incubating at room temperature. The HPLC of samples was performed by RP-18 end capped; […], 4.6 × 250 mm. The mobile phase containing water (30%) and acetonitrile (70%) was used at the flow rate of 1 mL/min at a column temperature of 27 °C at 210 nm wavelength. A volume of 5 µL of sample was injected and the total run time of the assay was 30 min using the isocratic technique in the HPLC system."}, "[4]": {"settings": "A549 cells, increasing concentrations"}}, "note": "pIC50: −log10 of the molar value."}
{"smiles": "Fc1ccc(-c2cnc3[nH]cc(-c4ccnc(NC5CC5)n4)c3c2)cc1", "note": "[MJ04]", "values": [{"measurement": "pIC50", "setting": "HCT-116", "value": 5.59}, {"measurement": "STAT3 phosphorylation", "setting": "[1]; A549 cells stimulated with IL-6", "value": "significant decrease"}, {"measurement": "phosphorylation of STAT3 (Tyr705)", "setting": "[1]; A549 cells, dose-dependent", "value": "significant decrease"}, {"measurement": "phosphorylation of JAK1", "setting": "[1]; [4]", "value": "significant reduction"}, {"measurement": "phosphorylation of JAK3", "setting": "[1]; [4]", "value": "significant reduction"}, {"measurement": "pIC50", "setting": "PI-3-K γ; Km ATP", "value": 5.44}, {"measurement": "Fold of selectivity vs. JAK3", "setting": "PI-3-K γ; PI-3-K γ", "value": 1806}, {"measurement": "pIC50", "setting": "PI-3-K β", "value": "< 5.00"}, {"measurement": "differentiation of naïve T cells into Th1 subsets", "setting": "[2]", "value": "inhibits the differentiation of naïve T cells"}, {"measurement": "stability in the formulation used for animal experiments", "setting": "[3]", "value": "stable"}]}
